Data reported in patent US12121524B2, “DNA-PK inhibitors” (VERTEX PHARMACEUTICALS INCORPORATED, priority 2018, dated 2024).
Where “and” joins values, the source holds several entries; their conditions need not be identical. Equal entries are not always repeated.

Columns and labels:
DNA-PK = DNA-PK (Homo sapiens, UniProt P78527); assay: DNA-PK inhibition assay (standard radiometric 33P-ATP kinase assay); format: biochemical; conditions: 100 μM ATP, approx. 6 nM DNA-PK
Experimental: Compounds were screened for their ability to inhibit DNA-PK kinase using a standard radiometric assay. Briefly, in this kinase assay the transfer of the terminal ^33P-phosphate in ^33P-ATP to a peptide substrate is interrogated. The assay was carried out in 384-well plates to a final volume of 50 μL per well containing approximately 6 nM DNA-PK, 50 mM HEPES (pH 7.5), 10 mM MgCl2, 25 mM NaCl, 0.01% BSA, 1 mM DTT, 10 μg/mL sheared double-stranded DNA (obtained from Sigma), 0.8 mg/mL DNA-PK peptide (Glu-Pro-Pro-Leu-Ser-Gln-Glu-Ala-Phe-Ala-Asp-Leu-Trp-Lys-Lys-Lys, obtained from American Peptide), and 100 μM ATP.
Accordingly, compounds of the invention were dissolved in DMSO to make 10 mM initial stock solutions. Serial dilutions in DMSO were then made to obtain the final solutions for the assay. A 0.75 μL aliquot of DMSO or inhibitor in DMSO was added to each well, followed by the addition of ATP substrate solution containing ^33P-ATP (obtained from Perkin Elmer). The reaction was started by the addition of DNA-PK, peptide and ds-DNA. After 45 min, the reaction was quenched with 25 μL of 5% phosphoric acid. The reaction mixture was transferred to MultiScreen HTS 384-well PH plates (obtained from Millipore), allowed to bind for one hour, and washed three times with 1% phosphoric acid. Following the addition of 50 μL of Ultima Gold™ high efficiency scintillant (obtained from Perkin Elmer), the samples were counted in a Packard TopCount NXT Microplate Scintillation and Luminescence Counter (Packard BioScience). The Ki values were calculated using Microsoft Excel Solver macros to fit the data to the kinetic model for competitive tight-binding inhibition.

mPB CD34+ cells [1] = assay: Gene editing rates in CD34+ cells, Example 19 (lower sgRNA and ssODN); format: cell-based, human; conditions: for % HDR: NAV1.7, 48 h
Experimental: Primary human mobilized peripheral blood (mPB) CD34^+ hematopoietic stem and progenitor cells (HSPCs) were purchased from Hemacare or AllCells. Cells were thawed, washed and resuspended in complete medium comprised of serum free medium CellGro SCGM (CellGenix) and supplemented with cytokine mix (300 ng/mL SCF, 300 ng/mL Flt3 L, 100 ng/mL TPO, 60 ng/ml IL-3) at a density of 1-3×10^5 cells per mL and incubated at 37° C./5% CO2 incubator for 48 hours prior to electroporation.
(§1) CD34^+ cells were electroporated two days post thaw. The following conditions were used for electroporation: 2.0×E6 cells, 15 μg Cas9 protein (Feldan), 15 μg sgRNA, 1 μM of ssODN in 100 μl of P3 electroporation buffer using program CA-137. Electroporated cells were transferred by equally dividing them into eight wells of a 24-well plate, each well containing various concentrations of DNA-PK inhibitors. Cells were incubated at 37° C. in a 5% CO2 incubator for two days and evaluated for cell viability and gene editing.
Genomic DNA was isolated by incubating cells with 50 ul DNA Quickextract solution (Epicentre) per well of 96 well plate for 30 min at 37° C. Cellular extract was mixed and transferred into a PCR plate and then incubated for 6 min at 65° C. and 2 min at 98° C. PCR reactions were carried out with 1 ul of Genomic DNA containing solution by using AccuPrime™ Pfx DNA Polymerase (Thermofisher, 12344024). PCR conditions were 4 min at 94° C. (1×), followed by 15 s at 94° C., 15 s at 60° C. and 1 min at […]. The PCR products were purified and then Sanger sequenced by GENEWIZ. The following primer pairs spanning the target site were used for PCR (FW, forward; RV, reverse). Primers used by Sanger Sequencing are indicated by an asterisk (*): […]
Each sequence chromatogram was analyzed using TIDE (Tracking of Indels by Decomposition) software (http://tide.nki.nl) (See also Brinkman et al., Nucleic Acids Research, Volume 42, Issue 22, 16 Dec. 2014, Pages e168). Mock-electroporated samples were used as the reference sequence, and parameters were set to an indel size of 30 nt, and the decomposition window was set to cover the largest possible window with high-quality traces. Total indel (insertion and deletions) rates were obtained directly from TIDE plots. HDR rates were the percentage of events with an insertion of 10 Nucleotides. NHEJ Rates were calculated as Total Indel rate−HDR rate. GraphPad Prism 7 software was used to make Graphs and to calculate the all Statistical information.
(§2) mPB CD34^+ cells were electroporated with RNP (spCAS9 protein+NAV1.7 sgRNA) and NAV1.7 Non-PAM ssODN. Cells were then incubated with various concentrations of Compounds 661, 663 and 666. Experiments were done as described in the methods above, except lower concentrations of sgRNA (5 μg) and ssODN (0.2 μM) were used. Gene editing rates were determined by using TIDE assay 48 h after electroporation. Gene editing rates were expressed in percentages and classified as HDR and NHEJ.

mPB CD34+ cells [2] = assay: CD34+ cell viability (Cell Titer Glo), Example 19; format: cell-based, human; conditions: untreated control = 100
Experimental: as §1
CD34^+ HSPCs cell survival was measured using Cell Titer Glo (CTG) reagent (Promega). 100 μl of cell suspension was mixed with 100 μl complete CTG reagent. The chemiluminescent signal was measure using a luminometer and % of viable cells was calculated as compared to control cells (cells not treated with the DNA-PK inhibitors).
as §2

CD34+ cells = assay: HDR gene editing rates in CD34+ cells, spCAS9 mRNA, AAVS1 (Example 20); format: cell-based, human; conditions: AAVS1 sgRNA, AAVS1 Non-PAM ssODN, 72 hs, FIGS. 8-10
Experimental: To investigate the effect of DNA-PK inhibitors on HDR gene editing rates, CD34^+ cells were electroporated with spCAS9 mRNA, AAVS1 sgRNA and AAVS1 Non-PAM ssODN and then incubated with different concentrations of Compounds 666, 661, 663 or left untreated (Control). Gene editing rates were determined by using TIDE assay 72 hs after electroporation. Gene editing rates were expressed in percentages and classified as HDR and NHEJ. Cell survival rates are shown in percentages where control cells were set as 100%.

Row | Ki (DNA-PK) | SMILES | % NHEJ (mPB CD34+ cells [1]; Donor A, 0.37 μM) [%] | % HDR (mPB CD34+ cells [1]; Donor A, 0.37 μM) [%] | % Indels (mPB CD34+ cells [1]; Donor A, 1.11 μM) [%] | % NHEJ (mPB CD34+ cells [1]; Donor A, 1.11 μM) [%] | % WT (mPB CD34+ cells [1]; Donor A, 1.11 μM) [%] | % HDR (mPB CD34+ cells [1]; Donor A, 1.11 μM) [%] | % Indels (mPB CD34+ cells [1]; Donor A, 3.33 μM) [%] | % WT (mPB CD34+ cells [1]; Donor A, 3.33 μM) [%] | % HDR (mPB CD34+ cells [1]; Donor A, 3.33 μM) [%] | % NHEJ (mPB CD34+ cells [1]; Donor A, 10 μM) [%] | % Indels (mPB CD34+ cells [1]; Donor A, 10.00 μM) [%] | % WT (mPB CD34+ cells [1]; Donor A, 10.00 μM) [%] | % HDR (mPB CD34+ cells [1]; Donor A, 10 μM) [%] | % NHEJ (mPB CD34+ cells [1]; Donor D, 0.37 μM) [%] | % HDR (mPB CD34+ cells [1]; Donor D, 0.37 μM) [%] | % Indels (mPB CD34+ cells [1]; Donor D, 1.11 μM) [%] | % NHEJ (mPB CD34+ cells [1]; Donor D, 1.11 μM) [%] | % WT (mPB CD34+ cells [1]; Donor D, 1.11 μM) [%] | % HDR (mPB CD34+ cells [1]; Donor D, 1.11 μM) [%] | further results
1 | 1 nM | CNC(=O)c1ccnc(N[C@H]2CC[C@@H](Oc3cc(N4CCOCC4)cc4nccnc34)CC2)n1 [Compound 661] | 66.2 | 21.8 | 59.4 | 59.4 | 4.2 | 31.7 | 57.8 | 5.1 | 32.2 | 47 | 47 | 18.9 | 28 | 78.1 | 6.9 | 77.5 | 77.5 | 6 | 10.8 | % Indels (mPB CD34+ cells [1]; Donor D, 3.33 μM): 76.7%; % WT (mPB CD34+ cells [1]; Donor D, 3.33 μM): 6.4%; % HDR (mPB CD34+ cells [1]; Donor D, 3.33 μM): 11.5%; % NHEJ (mPB CD34+ cells [1]; Donor D, 10 μM): 64.2%; % Indels (mPB CD34+ cells [1]; Donor D, 10.00 μM): 64.2%; % WT (mPB CD34+ cells [1]; Donor D, 10.00 μM): 11.1%; % HDR (mPB CD34+ cells [1]; Donor D, 10 μM): 13.4%; Viability (mPB CD34+ cells [2]; Donor A, 1.11 μM): 60; Viability (mPB CD34+ cells [2]; Donor A, 3.33 μM): 47; Viability (mPB CD34+ cells [2]; Donor A, 10.00 μM): 6; Viability (mPB CD34+ cells [2]; Donor D, 1.11 μM): 62; Viability (mPB CD34+ cells [2]; Donor D, 3.33 μM): 75; Viability (mPB CD34+ cells [2]; Donor D, 10.00 μM): 11; HDR rates (CD34+ cells): improve HDR rates
2 | 1 nM and < 100 nM | CNC(=O)c1ccnc(N[C@H]2CC[C@@H](Oc3cc(N4CCOCC4)cc4nonc34)CC2)n1 [Compound 666, N-methyl-2-((4-((6-morpholinobenzo[c][1,2,5]oxadiazol-4-yl)oxy)cyclohexyl)amino)pyrimidine-4-carboxamide] | 67.3 | 23.2 | 58.8 | 58.8 | 3.5 | 31.5 | 56.5 | 5.8 | 32.4 | 52 | 52 | 9.7 | 33.6 | 79.2 | 5.5 | 77.5 | 77.5 | 6.2 | 11 | % Indels (mPB CD34+ cells [1]; Donor D, 3.33 μM): 73.8%; % WT (mPB CD34+ cells [1]; Donor D, 3.33 μM): 5.3%; % HDR (mPB CD34+ cells [1]; Donor D, 3.33 μM): 14.3%; % NHEJ (mPB CD34+ cells [1]; Donor D, 10 μM): 69%; % Indels (mPB CD34+ cells [1]; Donor D, 10.00 μM): 69%; % WT (mPB CD34+ cells [1]; Donor D, 10.00 μM): 11.8%; % HDR (mPB CD34+ cells [1]; Donor D, 10 μM): 13.7%; Viability (mPB CD34+ cells [2]; Donor A, 1.11 μM): 65; Viability (mPB CD34+ cells [2]; Donor A, 3.33 μM): 42; Viability (mPB CD34+ cells [2]; Donor A, 10.00 μM): 36; Viability (mPB CD34+ cells [2]; Donor D, 1.11 μM): 76; Viability (mPB CD34+ cells [2]; Donor D, 3.33 μM): 69; Viability (mPB CD34+ cells [2]; Donor D, 10.00 μM): 34; HDR rates (CD34+ cells): improve HDR rates
